Like-named read-outs stand apart in the source and are kept apart here.
Columns and labels:
5α-hydroxylase = settings: 100 μM inhibitor; cited from earlier work
[1] = biological target: T1, recombinant taxoid 5α-hydroxylase (clone S1) (Taxus cuspidata, UniProt Q6WG30); assay: Substrate binding spectra with Sf9 microsomes enriched in recombinant 5α-hydroxylase; settings: no NADPH
T1 construct: the S1 ORF was amplified using Pfu DNA polymerase and gene-specific primers containing a BamHI site immediately upstream of the start codon; made in house; host or cells: Spodoptera frugiperda Sf9 cells (baculovirus, pFastBac1); microsomal membranes
T1 sequence (Q6WG30 with tags, fused parts or gaps): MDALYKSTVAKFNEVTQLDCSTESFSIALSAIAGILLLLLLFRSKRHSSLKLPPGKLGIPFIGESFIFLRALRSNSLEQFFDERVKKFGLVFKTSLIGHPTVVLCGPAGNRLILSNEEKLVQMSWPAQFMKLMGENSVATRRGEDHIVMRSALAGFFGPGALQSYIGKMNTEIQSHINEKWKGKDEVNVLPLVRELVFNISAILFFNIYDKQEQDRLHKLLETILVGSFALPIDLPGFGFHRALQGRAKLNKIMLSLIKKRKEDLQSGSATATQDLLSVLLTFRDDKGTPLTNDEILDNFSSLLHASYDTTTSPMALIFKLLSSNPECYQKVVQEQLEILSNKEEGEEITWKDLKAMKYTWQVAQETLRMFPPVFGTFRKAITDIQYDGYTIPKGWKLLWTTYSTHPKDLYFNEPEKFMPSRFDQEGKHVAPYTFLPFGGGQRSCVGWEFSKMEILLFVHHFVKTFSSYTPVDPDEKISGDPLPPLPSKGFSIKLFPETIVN
Experimental: Microsomes from S. frugiperda cells enriched with 200 pmol recombinant taxoid 5α-hydroxylase (clone S1) were employed. Taxa-4(20),11(12)-diene was assayed over a concentration range from 0.1 to 10 μM, and a binding constant (Ks) of 4±1 μM was determined (upper graph). Taxa-4(5),11(12)-diene was assayed over a concentration range of 0.1 to 20 μM and a binding constant (Ks) of 6.5±1.5 μM was determined (lower graph).
Binding spectra for both taxadiene isomers (in the absence of NADPH) were then recorded using the Sf9 cell microsomes enriched in the recombinant 5α-hydroxylase. Substrate binding spectra were obtained as described by Schenkin and Jausson, Methods Mol. Biol. (Cytochrome P450 Protocols), 107:25-33, 1998) using a Perkin-Elmer Lambda 18 spectrophotometer (Haudenschild et al., Arch. Biochem. Biophys., 379:127-136, 2000). Substrate binding spectra were recorded with up to 200 pmol of recombinant microsomal cytochrome P450 enzyme (as determined by CO-difference spectral analysis) per cuvette in 100 mM sodium phosphate buffer at pH 7.5. In preparation for binding studies, the taxadiene isomers were each dissolved in DMSO and 1 μl additions to the sample were made to a final concentration of 1.5% (v/v). For data analysis, Spectrum for Windows (Perkin-Elmer Corp., Wellesey, Mass.) and Sigmaplot 7.0 (SPSS Inc., Chicago, Ill.) were employed and experiments were run in triplicate.

[2] = biological target: T1, recombinant taxoid 5α-hydroxylase (clone S1); assay: Kinetic evaluation with Sf9 microsomes enriched in recombinant 5α-hydroxylase (radio-HPLC, Michaelis-Menten); assay type: biochemical; settings: recombinant enzyme, 200 μM NADPH plus regenerating system
Experimental: Kinetic constants for both isomers were next evaluated (at a saturating 200 μM concentration of NADPH plus regenerating system; Shimada and Yamazai, Meth. Mol. Biol., 107:85-93, 1998). The isolated microsomes were resuspended in 50 mM Hepes, pH 7.5, containing 1 mM DTT and 5% (v/v) glycerol, and the 1 ml reactions (˜600 μg protein, 50 μM substrate dissolved in DMSO, and the requisite cofactors (e.g., NADPH plus regenerating system) were run as described previously, with the identical protocols for product analysis (Jennewein et al., Proc. Natl. Acad. Sci. USA, 98:13595-13600, 2001). DMSO was without influence on the reaction. For kinetic evaluation, following the establishment of linear reaction conditions in protein concentration and time, the response to substrate concentration was plotted by the Michaelis-Menten method (Sigmaplot 7.0) using the calibrated radio-HPLC protocol for product determination Data from three independent experiments were pooled and the line of best fit taken (R^2>0.99).

[3] = test system: microsomal 5α-hydroxylase activity; assay: Kinetic evaluation with Taxus suspension cell microsomes (radio-HPLC, total product); assay type: biochemical, Taxus media hicksii; settings: T. media suspension cell microsomes, [20-3H] substrate
Experimental: Preparation of Taxus suspension cell microsomes and assays for microsomal 5α-hydroxylase activity were carried out as previously described (Hefner et al., Chem. Biol., 3:479489, 1996; Lovy Wheeler et al., Arch. Biochem. Biophys., 390:265-278, 2001) with the following modifications: Unelicited Taxus media hicksii cells were harvested 14 days after transfer, separated from the media, frozen in liquid N2 and ground to a fine powder with a mortar and pestle, with extraction and microsome preparation as described by Lovy Wheeler et al. (Arch. Biochem. Biophys., 390:265-278, 2001). The previously described radio-HPLC-based assay (Lovy Wheeler et al., Arch. Biochem. Biophys., 390:265-278, 2001) was employed to separate the substrate from taxadien-5α-ol and polyols derived therefrom which were summed as “total product” for the purpose of rate determination.
Following the confirmation of linear reaction conditions in protein concentration and time, kinetic constants were determined for both [20-3H]taxa-4(5),11(12)-diene and [20-3H]taxa-4(20),11(12)-diene with the optimized assay (Hefner et al., Chem. Biol., 3:479-489, 1996). The radio-HPLC-based assay previously described by Lovy Wheeler et al. (Arch. Biochem. Biophys., 390:265-278, 2001) was employed to permit summing of taxadien-polyols derived subsequently from the initially formed taxadienol product generated by this microsomal system that contains all of the downstream cytochrome P450 taxoid oxygenases of the pathway (Lovy Wheeler et al., Arch. Biochem. Biophys., 390:265-278, 2001).
Thus, one or more constituents of the crude Taxus microsomal protein preparation catalyze the reaction of taxa-4(5),11(12)-diene and taxa-4(20),11(12)-diene to the corresponding taxadienols.

[4] = biological target: T2, clone S1 taxoid 5α-hydroxylase in Saccharomyces cerevisiae WAT11 (Taxus cuspidata, UniProt Q6WG30); assay: In vivo feeding of labeled substrate to yeast expressing clone S1, radio-HPLC and GC-MS of products; assay type: cell-based; settings: 30 μM substrate
T2 construct: expressed in transfected cells; host or cells: Saccharomyces cerevisiae strain WAT11
T2 sequence (Q6WG30 with tags, fused parts or gaps limits assumed): as the sequence (Q6WG30 with tags, fused parts or gaps) above
Excerpt: This in vivo feeding protocol eliminated the uncertainties associated with microsome isolation and in vitro assay, including the instability of P450 oxygenases in yeast membranes (Schoendorf et al., Proc. Nail. Acad. Sci. USA, 98:1501-1506, 2001).
Transformed and induced yeast cells were harvested by centrifugation as described in Example 2. As a negative control for the feeding experiments, the yeast host was transformed with the pYES2.1/V5-HIS-TOPO™ vector containing a β-glucuronidase insert instead of the cytochrome P450 S1 clone. The cells were resuspended in 3 ml of fresh YPLA medium to which 30 μM of the labeled test substrate was added. Test substrates included:
The cell and test substrate suspension was incubated overnight at 30° C. with mixing (250 rpm). The incubation mixture was then treated for 15 minutes in a sonication bath and extracted twice with 3 ml of hexane:ethyl acetate (4:1 v/v). The organic extract was then dried under N2, the residue dissolved in 100 μl of acetonitrile, and an aliquot was separated by reversed-phase radio-HPLC (250 mm×4.6 mm column of Alltech (Deerfield, Ill.) Econosil C18 (5 μm); flow rate of 1 ml/min; with radio-detection of the effluent (Flow-One-Beta Series A-1000, Radiomatic Corp., Meriden, Conn.)). The following gradient was employed: 0-5 minutes at 100% Solvent A (97.99% H2O with 2% CH3CN and 0.01% H3PO4 (v/v)), 5-15 minutes at 0-50% Solvent B (99.99% CH3CN with 0.01% H3PO4 (v/v)), 15-55 minutes at 50-100% Solvent B, 55-65 minutes at 100% Solvent B, 65-70 minutes at 0-100% Solvent A, 70-75 minutes at 100% Solvent A. The HPLC eluant was collected in 1 minute fractions and the appropriate fractions containing the radiolabeled product were combined, dried under a stream of N2, and dissolved in the minimum volume of benzene for GC-MS analysis.
GC-MS analyses were performed on a Hewlett-Packard 6890 GC-MSD system using a ZB-5 capillary column (Phenomenex (Torrance, Calif.); 30 m length; 0.25 mm inner diameter; coated with a 0.25 μm film of phenyl (5%) polysiloxane). Cool on-column injection was used, with He flow rate of 0.7 ml/min and a temperature program from 40° C. to 320° C. at 20° C./min. Spectra were recorded at 70 eV.

[5] = test system: microsomal taxa-4(5),11(12)-diene isomerase activity; assay: Assay for microsomal taxadiene isomerase activity and pH-dependent isomerization; assay type: biochemical; settings: Taxus or Spodoptera microsomes, no NADPH or no O2, or CO, miconazole, clotrimazole, boiled controls
Experimental: The assay for microsomal taxa-4(5),11(12)-diene isomerase activity (and the reverse isomerization) was carried out under standard cytochrome P450 oxygenase conditions but in the absence of NADPH or O2, or in the presence of inhibitory concentrations of CO, miconazole or clotrimazole (under conditions described previously for which the rate of 5α-hydroxylation is negligible (Hefner et al., Chem. Biol., 3:479489, 1996)). A number of additional, potential cofactors were also tested, including FAD, FADH2, FMN, FMNH2, NAD+, NADH and NADP+ (all at 2.5 mM), as well as MgCl2 (at 5.0 mM). The possibility of pH-dependent isomerization was tested by incubating each isomer (100 μM) in phosphate buffer (pH 4 to 10) for 12 hours at 31° C., with separation of isomers as described previously (Williams et al., Arch. Biochem. Biophys., 379:137-146, 2000).

taxoid 5α-hydroxylase = taxoid 5α-hydroxylase (Taxus cuspidata, UniProt Q6WG30); assay: Kinetic evaluation of taxadiene isomers, average of recombinant and T. media microsomes (FIG. 4); assay type: biochemical; settings: average of recombinant (Sf9) and T. media microsomes; substrate 1 to 500 μM
Sequence of taxoid 5α-hydroxylase (Q6WG30 whole entry): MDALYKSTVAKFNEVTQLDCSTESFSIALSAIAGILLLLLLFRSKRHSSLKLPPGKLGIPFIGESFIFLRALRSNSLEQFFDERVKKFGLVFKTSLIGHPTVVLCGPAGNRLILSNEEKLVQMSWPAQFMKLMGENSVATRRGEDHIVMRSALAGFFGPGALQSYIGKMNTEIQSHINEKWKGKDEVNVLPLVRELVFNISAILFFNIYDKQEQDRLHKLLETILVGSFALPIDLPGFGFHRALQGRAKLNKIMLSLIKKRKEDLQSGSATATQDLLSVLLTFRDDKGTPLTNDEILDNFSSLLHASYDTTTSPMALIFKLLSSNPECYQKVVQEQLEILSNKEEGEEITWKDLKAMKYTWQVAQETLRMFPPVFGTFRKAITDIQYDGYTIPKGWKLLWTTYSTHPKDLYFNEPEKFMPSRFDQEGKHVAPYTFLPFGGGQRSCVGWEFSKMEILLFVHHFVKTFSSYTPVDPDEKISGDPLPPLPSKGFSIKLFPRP
Experimental: Taxa-4(20),11(12)-diene (◯) and taxa-4(5),11(12)-diene (●) were evaluated with microsomes from S. formgiperda cells enriched with 50 pmol recombinant taxoid 5α-hydroxylase (A), and with microsomes from T. media suspension cells containing about 50 pmol of total native cytochrome P450 (B). Substrate Concentration range was varied from 1 to 500 μM in all cases.

[6] = test system: native microsomal 5α-hydroxylase; settings: native microsome preparations from yew stem tissue, determined previously; cited from earlier work
taxoid 13α-hydroxylase = biological target: T3, taxoid 13α-hydroxylase (Taxus cuspidata, UniProt Q8W4T9); assay: Feeding to yeast that functionally express taxoid 13α-hydroxylase; assay type: cell-based; settings: product of clone S1 enzyme fed to 13α-hydroxylase yeast
T3 construct: expressed in transfected cells
T3 sequence (Q8W4T9 whole entry): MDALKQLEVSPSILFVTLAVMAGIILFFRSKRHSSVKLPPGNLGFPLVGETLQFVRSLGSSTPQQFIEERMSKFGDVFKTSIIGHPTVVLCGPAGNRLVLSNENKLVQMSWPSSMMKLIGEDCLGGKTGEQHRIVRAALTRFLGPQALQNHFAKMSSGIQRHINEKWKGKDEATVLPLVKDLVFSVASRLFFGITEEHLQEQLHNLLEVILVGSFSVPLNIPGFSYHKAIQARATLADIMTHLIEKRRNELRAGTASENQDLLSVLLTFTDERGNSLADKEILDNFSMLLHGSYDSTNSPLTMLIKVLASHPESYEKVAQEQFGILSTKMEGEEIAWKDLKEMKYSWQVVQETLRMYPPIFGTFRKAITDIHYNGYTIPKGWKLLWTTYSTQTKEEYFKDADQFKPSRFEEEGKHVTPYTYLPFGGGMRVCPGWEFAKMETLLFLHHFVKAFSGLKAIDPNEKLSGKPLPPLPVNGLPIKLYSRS
Excerpt: The taxa-4(20),11(12)-dien-5α-ol radiolabeled product of the clone S1 enzyme was isolated by HPLC, and the purified material was fed to yeast that functionally express the previously characterized taxoid 13α-hydroxylase (Jennewein et al., Proc. Natl. Acad. Sci. USA, 98:13595-13600, 2001). As discussed above, 13α-hydroxylation of a paclitaxel intermediate is believed to follow 5α-hydroxylation in the paclitaxel biosynthetic pathway (Floss and Mocek, Taxol: Science and Applications, CRC Press, Boca Raton, 191-208, 1995; and Croteau et al., Curr. Top. Plant Physiol. 15:94-104, 1996). Thus, as expected, taxa-4(20),11(12)-dien-5α-ol was quantitatively converted to taxa-4(20),11(12)-dien-5α,13α-diol by the 13α-hydroxylase.

[7] = FIG. 3, microsomes with 200 pmol recombinant enzyme, read-out: binding constant (Ks)
[8] = over a 100-fold range of substrate concentrations, pH 7.5, read-out: substrate binding constant (Ks), variation
[9] = overnight at 30° C., radio-HPLC

Row | SMILES | hydroxylation activity in the presence of the inhibitor (5α-hydroxylase) | Kd [1, 7] [µM] | Kd [1, 8] [µM] | Vrel [2] | Km [3] [µM] | Vrel [3] | share of minor product taxadien-diol [4, 9] [%] | share of principal product taxa-4(20),11(12)-dien-5α-ol [4, 9] [%] | isomerization to the other taxadiene positional isomer [5] | Vrel (average) (taxoid 5α-hydroxylase) | further results
1 | Clc1ccccc1C(c1ccccc1)(c1ccccc1)n1ccnc1 [clotrimazole] | negligible | – | – | – | – | – | – | – | – | – | –
2 | Clc1ccc(COC(Cn2ccnc2)c2ccc(Cl)cc2Cl)c(Cl)c1 (stereo not shown) [miconazole] | negligible | – | – | – | – | – | – | – | – | – | –
3 | CC1=CCC[C@@]2(C)CCC3=C(C)CC[C@@H](C[C@H]12)C3(C)C [taxa-4(5),11(12)-diene] | – | 6.5 ± 1.5 | 5 to 8 | 100 | 48 | 100 | < 50 | > 92 | No isomerization | 100 | conversion to more polar products [4, 9]: almost quantitatively; isomerization to the other taxadiene positional isomer ([5]; listed as 3): not observed; Km [6]: ~6 µM
4 | C=C1[C@H]2C[C@@H]3CCC(C)=C(CC[C@]2(C)CC[C@@H]1O)C3(C)C [taxa-4(20),11(12)-dien-5α-ol] | – | – | – | – | – | – | – | – | – | – | conversion to taxa-4(20),11(12)-dien-5α,13α-diol (taxoid 13α-hydroxylase): quantitatively
5 | C=C1CCC[C@@]2(C)CCC3=C(C)CC[C@@H](C[C@H]12)C3(C)C [taxa-4(20),11(12)-diene] | – | 4 ± 1 | 3 to 5 | 120 | 27 | 150 | ~8 | ~90 | No isomerization | 135 | share of other minor metabolites in product mix ([4]; also formed in negative control): ~2%
